The subject of one test is SH-SY5Y cells. Briefly: Acidic vesicle formation in SH-SY5Y cells (LysoTracker Deep Red). The conditions noted are these: 24 hours, relative to DMSO-treated control. Type of test: cell-based, human. On the procedure: This is evidence for significant stimulation of autophagy by this compound under these conditions. SH-SY5Y cells are a human-derived neuroblastoma cell line widely used in in vitro models of neurological disorders (Ross R A, Spengler B A, Biedler J L. Coordinate morphological and biochemical interconversion of human neuroblastoma cells. J Natl Cancer Inst. 1983 October; 71 (4): 741-7. PMID: 6137586).
A brief description of the procedure employed is outlined here: • Day 1: Cells were seeded at 15K cells/well in the middle 60 wells of 6×96 well Cellvis imaging plates • Day 2: Media was replaced with 90 μl of DMEM/F12 (+10% FBS/1% P/S) containing NucBlue Live and the cells were treated with 10 μl of compound (10× concentrated) in triplicate for 24 hours. • Day3: Treatment was removed and cells were incubated for 30 minutes with LysoTracker™ Deep Red dye. Cells were washed twice with media and immediately imaged on EVOS M7000 at ×20 (6 images per well, 30 minutes imaging time/plate). Images were analysed using Celleste Image analysis software.

For test [1], the system named is primary culture of dopaminergic Tyrosine hydroxylase (TH)-positive neurons. Briefly: Cellular model of Parkinson's disease (MPTP/MPP+ injury). It counts as cell-based, rat. An excerpt: This model (run by Neuro-Sys SAS, France) is based on a primary culture of dopaminergic Tyrosine hydroxylase (TH)-positive neurons injured with the dopaminergic neurons-specific toxin (DA-toxin) 1-methyl-4-phenyl-1,2,3,6 tetrahydropyridine (MPTP, a prodrug of MPP^+) (Dauer and Przedborski, 2003). Any substances reducing DA-toxin neurotoxicity may be useful as a new therapeutic agent for the treatment or prevention of PD.
Primary culture of mesencephalic neurons: Rat dopaminergic neurons were cultured as described by Visanji et al., 2008 and Callizot et al., 2019. Briefly, pregnant female rat (Wistar) of 15 days of gestation were killed using a deep anesthesia with CO2 chamber and a cervical dislocation. The midbrains obtained from 15-day-old rat embryos (Janvier, France) were dissected under a microscope. The embryonic midbrains will be removed and placed in ice-cold medium of Leibovitz (L15) containing 2% of Penicillin-Streptomycin (PS) and 1% of bovine serum albumin (BSA). The ventral portion of the mesencephalic flexure, a region of the developing brain rich in dopaminergic neurons, was used for the cell preparations.
The midbrains were dissociated by trypsinisation for 20 min at 37° C. (solution at a final concentration of 0.05% trypsin and 0.02% EDTA). The reaction was stopped by the addition of Dulbecco's modified Eagle's medium (DMEM) containing DNAase I grade II (0.5 mg/mL) and 10% of foetal calf serum (FCS). Cells were then mechanically dissociated by 3 passages through a 10 ml pipette. Cells were then centrifuged at 180×g for 10 min at +4° C. on a layer of BSA (3.5%) in L15 medium. The supernatant was discarded, and the cell pellets re-suspended in a defined culture medium consisting of Neurobasal supplemented with B27 (2%), L-glutamine (2 mM) and 2% of PS solution and 10 ng/mL of Brain-derived neurotrophic factor (BDNF) and 1 ng/ml of Glial-Derived Neurotrophic Factor (GDNF). Viable cells were counted in a Neubauer cytometer using the trypan blue exclusion test. The cells were seeded at a density of 40,000 cells/well in 96 well-plates (pre-coated with poly-L-lysine) and maintained in a humidified incubator at 37° C. in 5% CO2/95% air atmosphere. Half of the medium was changed every 2 days with fresh medium. The wells of first and last lines and columns […] (to avoid any edge effect) and were be filled with sterile water.
• i) Pre-incubation. On day 6 of culture, the test compounds were dissolved in PBS or DMSO and incubated for 1 hour before the MPTP exposure. • ii) Injury. One hour after the application of test compound, MPTP was added to a final concentration of 4 μM, diluted in control medium still in presence of compounds/inhibitors for 48 h. Test compounds were tested on one culture in 96-well plate (n=6 culture wells per condition).
Immunostaining: TH and α-Synuclein. 48 Hours after intoxication, the cell culture supernatant was removed, and the cells were fixed by a solution of 4% paraformaldehyde in PBS, pH=7.3 for 20 min at room temperature. The cells were washed twice in PBS, and then permeabilized. Non-specific sites were blocked with a solution of PBS containing 0.1% of saponin and 1% FCS for 15 min at room temperature. The cultures were incubated with: (a) monoclonal anti-Tyrosine Hydroxylase (TH) antibody produced in mouse at dilution of 1/10000 in PBS containing 1% FCS, 0.1% saponin, for 2 hours at room temperature, and (b) polyclonal anti-alpha synuclein (α-synuclein) antibody produced in rabbit at dilution of 1/200 in PBS containing 1% FCS, 0.1% saponin, for 2 h at room temperature.
Automatic computer analysis. For each condition, 20 pictures (representing the whole well area) were automatically taken using ImageXpress® (Molecular Devices) at 10× magnification (20 pictures, for TH and α-synuclein into TH neurons) using the same acquisition parameters. From images, analyses was directly and automatically performed by MetaXpress® (Molecular Devices). […]

For test [2], the system named is Human osteosarcoma U2OS cells. Put plainly: Assay to measure lysosome and autolysosome (acidic vesicle) formation in U2OS cells. It counts as cell-based. As to conditions: for activation at 0.8 µM: Homo sapiens, concentration of 0.8 μM, read-out: Activity (percentage increase in acidic vesicle formation over the DMSO-treated control); for acidic vesicle formation relative to a DMSO-treated control: concentration of 10 μM, 24 hours. On the procedure:
Lysosomes play a fundamental role in the autophagic pathway by fusing with autophagosomes and creating ‘autolysosomes’ in order to digest their contents. Stimulation of lysosome and autolysosome formation by a compound is indicative of a stimulation of autophagy. The ability of compounds to stimulate lysosome and autolysosome formation, and thus autophagy, in live cells was assessed via fluorescent microscopy using various fluorescent stains for labelling and tracking acidic organelles (including lysosomes and autolysosomes) such as: LysoView™ 650 (70059 and 70059-T, Biotium), Lyso View™633 (70058 and 70058-T, Biotium) and LysoTracker™ Deep Red (L12492, ThermoFisher Scientific). The cellular phenotype was quantitatively assessed for the induction of acidic vesicle formation and compared to a non-treated control, thus providing a measure of the ability of the compound under investigation to stimulate autophagy.
Representative procedure using LysoView™ 633 dye or LysoTracker™ Deep Red dye: Human osteosarcoma U2OS cells (40,000 cells/well) were seeded in a 24 well glass bottom plate (Sensoplate, Greiner Bio-One) and were incubated overnight in a humidified atmosphere at 37° C. and 5% CO2. Cells were grown in DMEM (Gibco) supplemented with 10% Fetal Bovine Serum (FBS) and 100 units/ml penicillin and 100 μg/ml streptomycin (Invitrogen). After the attachment period, cells were treated with different compounds of interest (at various concentrations in DMSO) or DMSO (non-treated control) in cell culture medium and were incubated for 24 hours. Compound-containing medium was removed and cells were incubated with pre-warmed cell culture medium containing 1× Lyso View™ 633 (70058 and 70058-T, Biotium) or 50 nM LysoTracker™ Deep Red (L12492, ThermoFisher Scientific) for 45 minutes at 37° C. Finally, cell nuclei were stained for 10 minutes using Hoechst 33342 (1 μg/mL) and then the medium was replaced with fresh medium. The 24 well plate was then fitted into a heated stage on the microscope and cells maintained at 37° C. Images were captured using appropriate filter set for Cy5 and DAPI detection with the EVOS M7000 Microscope (ThermoFisher Scientific). The cellular phenotype was visually assessed for the induction of acidic vesicle formation relative to the non-treated control; multiple images were acquired and analysed using ImageJ or Cell Profiler.

The record followed here is patent US20250034127A1, “AUTOPHAGY INDUCING COMPOUNDS AND USES THEREOF, IN PARTICULAR FOR DISEASES OF THE CNS” (Samsara Therapeutics Inc., priority 2021, published 2025).

Turning to `C[C@H]1CN(C(=O)c2cc(-c3cnn(-c4ccccc4)c3)c[nH]2)CCN1` [Compound 3, (3S)-3-methyl-1-[4-(1-phenyl-1H-pyrazol-4-yl)-1H-pyrrole-2-carbonyl]piperazine], in the test with SH-SY5Y cells, the “Fold change in acidic vesicle formation at compound concentration of 0.8 μM” value (from here on “Fold change … of 0.8 μM”) is listed as 1.6 fold and the “Fold change in acidic vesicle formation at compound concentration of 10 μM” value (“Fold change … of 10 μM” for short) is on record as 3.5 fold.
For `O=C(O)C1CCCN1C(=O)c1csc(-c2cnn(-c3ccccc3)c2)n1` (stereo not drawn) [Compound 144, 1-[2-(1-phenyl-1H-pyrazol-4-yl)-1,3-thiazole-4-carbonyl]pyrrolidine-2-carboxylic acid], the “effects in the in vitro model of PD based on MPP+ injury” value in test [1] is “positive effects”. In addition, the “increase in the number of dopaminergic TH positive neurons” value in test [1] (100 nM, compared to MPTP injury alone) stood at 25%. In addition, the “decrease in α-syn area per dopaminergic TH positive neuron” value in test [1] (1 μM, 500 nM and 100 nM, compared to MPP+ injury alone) is given as above 15%.
`CCN1CCC(N(C(=O)c2csc(-c3cnn(-c4ccccc4)c3)n2)C(C)C)CC1` [Compound 218, N-(1-ethylpiperidin-4-yl)-2-(1-phenyl-1H-pyrazol-4-yl)-N-(propan-2-yl)-1,3-thiazole-4-carboxamide]: the activation at 0.8 µM in test [2] lay within 30 to 50%. In addition, in the test with SH-SY5Y cells, the “Fold change … of 0.8 μM” value worked out at 1.6 fold and the “Fold change … of 10 μM” value stood at 4.8 fold.
Regarding `C[C@H]1CN(C(=O)c2csc(-c3cnn(-c4ccccc4)n3)n2)CCN1` [Compound 238, (3S)-3-methyl-1-[2-(2-phenyl-2H-1,2,3-triazol-4-yl)-1,3-thiazole-4-carbonyl]piperazine], in the test with SH-SY5Y cells, the “Fold change … of 0.8 μM” value was 2.1 fold and the “Fold change … of 10 μM” value is 2.9 fold.
In the case of `CC(C)(C)N1CCC(NC(=O)c2csc(-c3cnn(-c4ccccc4)c3)n2)CC1` [Compound 248, N-(1-tert-butylpiperidin-4-yl)-2-(1-phenyl-1H-pyrazol-4-yl)-1,3-thiazole-4-carboxamide], in the test with SH-SY5Y cells, the “Fold change … of 0.8 μM” value was determined as 2.2 fold and the “Fold change … of 10 μM” value is 1.9 fold.
On to `C[C@H]1CN(C(=O)c2csc(-c3cnn(-c4ncccn4)c3)n2)CCN1` [Compound 249, 2-(4-{4-[(3S)-3-methylpiperazine-1-carbonyl]-1,3-thiazol-2-yl}-1H-pyrazol-1-yl)pyrimidine], for which the activation at 0.8 µM in test [2] lay in the range of 10 to 30%.
In the case of `CCN1CCC(N(C)C(=O)c2csc(-c3cnn(-c4ncccn4)c3)n2)CC1` [Compound 250, N-(1-ethylpiperidin-4-yl)-N-methyl-2-[1-(pyrimidin-2-yl)-1H-pyrazol-4-yl]-1,3-thiazole-4-carboxamide], the activation at 0.8 µM in test [2] lay in the range of 10 to 30%.
The same measure, in the same setting: as for `C[C@H]1CN(C(=O)c2cc(-c3cnn(-c4ccccc4)c3)c[nH]2)CCN1` [Compound 255, (3S)-3-methyl-1-[4-(1-phenyl-1H-pyrazol-4-yl)-1H-pyrrole-2-carbonyl]piperazine], the figure is 50 to 100%.
For the compound `CCN1CCC(N(C)C(=O)c2cc(-c3cnn(-c4ccccc4)c3)c[nH]2)CC1` [Compound 256, N-(1-ethylpiperidin-4-yl)-N-methyl-4-(1-phenyl-1H-pyrazol-4-yl)-1H-pyrrole-2-carboxamide], the activation at 0.8 µM in test [2] lay within 30 to 50%. In addition, in the test with SH-SY5Y cells, the “Fold change … of 0.8 μM” value is 1.8 fold and the “Fold change … of 10 μM” value was 2.7 fold.
The like results for `CCN1CCC(NC(=O)c2cc(-c3cnn(-c4ccccc4)c3)c[nH]2)CC1` [Compound 257, N-(1-ethylpiperidin-4-yl)-4-(1-phenyl-1H-pyrazol-4-yl)-1H-pyrrole-2-carboxamide] were, in that order, 50 to 100%, 1.9 fold and 2.6 fold.
In the case of `CCN1CCC(N(C)C(=O)c2cc(-c3nnc(-c4ccccc4)s3)cs2)CC1` [Compound 258, N-(1-ethylpiperidin-4-yl)-N-methyl-4-(5-phenyl-1,3,4-thiadiazol-2-yl)thiophene-2-carboxamide], in test [2], the activation at 0.8 µM fell in the range of 10 to 30% and the “acidic vesicle formation relative to a DMSO-treated control” value is recorded as “only a slight increase”.
In the case of `CCN1CCC(NC(=O)c2cc(-c3nnc(-c4ccccc4)s3)cs2)CC1` [Compound 259, N-(1-ethylpiperidin-4-yl)-4-(5-phenyl-1,3,4-thiadiazol-2-yl)thiophene-2-carboxamide], in test [2], the activation at 0.8 µM lay in the range of 10 to 30% and the “acidic vesicle formation relative to a DMSO-treated control” value is listed as “only a slight increase”. In the test with SH-SY5Y cells, the “Fold change … of 0.8 μM” value is 2.3 fold and the “Fold change … of 10 μM” value turned out to be 3.6 fold.
